Test results from patent US9440957B2, “Compounds and compositions for modulating EGFR Activity” (Novartis AG, priority 2012, dated 2016).
Like-named read-outs stand apart in the source and are kept apart here.

Experiments:
[1] = biological target: human EGFR L858R/T790M (NIH/3T3 cells) (Homo sapiens, UniProt P00533, L858R/T790M); assay: EGFR target modulation in engineered NIH/3T3 cell lines (phospho-EGFR Y1068 AlphaLISA), EGFR L858R/T790M; format: cell-based; conditions: engineered NIH/3T3 cells, read-out: NIH3T3 IC50 (μM) EGFR (L858R/T790M)
human EGFR L858R/T790M (NIH/3T3 cells), sequence (P00533 25-1210 T790M/L858R): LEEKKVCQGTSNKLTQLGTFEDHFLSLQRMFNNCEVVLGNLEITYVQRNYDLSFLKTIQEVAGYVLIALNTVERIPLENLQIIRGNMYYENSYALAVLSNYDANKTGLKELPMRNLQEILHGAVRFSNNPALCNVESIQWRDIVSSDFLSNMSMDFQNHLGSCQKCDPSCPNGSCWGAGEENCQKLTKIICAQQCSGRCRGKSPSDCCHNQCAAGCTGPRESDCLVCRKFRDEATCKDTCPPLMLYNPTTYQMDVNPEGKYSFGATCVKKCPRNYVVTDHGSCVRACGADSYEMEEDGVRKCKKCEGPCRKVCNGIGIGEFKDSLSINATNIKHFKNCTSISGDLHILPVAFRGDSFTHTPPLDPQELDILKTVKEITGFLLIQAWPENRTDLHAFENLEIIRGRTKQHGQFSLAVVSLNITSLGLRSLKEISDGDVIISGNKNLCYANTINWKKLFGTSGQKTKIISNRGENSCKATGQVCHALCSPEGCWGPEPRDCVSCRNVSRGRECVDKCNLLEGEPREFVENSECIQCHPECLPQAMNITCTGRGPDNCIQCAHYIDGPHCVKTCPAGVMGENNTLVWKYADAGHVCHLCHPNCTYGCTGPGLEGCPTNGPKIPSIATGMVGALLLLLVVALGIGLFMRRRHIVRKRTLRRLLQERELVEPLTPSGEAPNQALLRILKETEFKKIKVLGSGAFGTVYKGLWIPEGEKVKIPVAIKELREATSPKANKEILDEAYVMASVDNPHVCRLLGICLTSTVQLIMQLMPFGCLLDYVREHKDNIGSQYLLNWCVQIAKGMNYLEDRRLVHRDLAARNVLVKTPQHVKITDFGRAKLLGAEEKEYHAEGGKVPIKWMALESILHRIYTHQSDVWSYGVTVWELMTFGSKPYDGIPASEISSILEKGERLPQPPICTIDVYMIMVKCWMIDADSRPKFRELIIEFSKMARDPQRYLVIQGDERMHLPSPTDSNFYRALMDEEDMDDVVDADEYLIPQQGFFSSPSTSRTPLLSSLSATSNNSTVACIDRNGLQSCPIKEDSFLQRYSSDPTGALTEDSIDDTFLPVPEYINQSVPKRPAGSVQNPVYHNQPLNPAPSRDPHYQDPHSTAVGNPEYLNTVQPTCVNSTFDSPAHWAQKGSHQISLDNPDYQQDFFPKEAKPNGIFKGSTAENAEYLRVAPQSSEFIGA
In short: (§1)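 Engineered NIH/3T3 cells were plated overnight, then exposed to a 12-point 1:3 compound series (from a 10 μM stock) for 3 hours at 37 °C. WT-expressing cells alone were stimulated with 50 ng/ml EGF for 5 minutes before lysis. IC50s came from non-linear fits of AlphaLISA signal.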

[2] = biological target: human EGFR L858R (NIH/3T3 cells) (Homo sapiens, UniProt P00533, L858R); assay: EGFR target modulation in engineered NIH/3T3 cell lines (phospho-EGFR Y1068 AlphaLISA), EGFR L858R; format: cell-based; conditions: engineered NIH/3T3 cells, read-out: NIH3T3 IC50 (μM) EGFR (L858R)
human EGFR L858R (NIH/3T3 cells), sequence (P00533 25-1210 L858R): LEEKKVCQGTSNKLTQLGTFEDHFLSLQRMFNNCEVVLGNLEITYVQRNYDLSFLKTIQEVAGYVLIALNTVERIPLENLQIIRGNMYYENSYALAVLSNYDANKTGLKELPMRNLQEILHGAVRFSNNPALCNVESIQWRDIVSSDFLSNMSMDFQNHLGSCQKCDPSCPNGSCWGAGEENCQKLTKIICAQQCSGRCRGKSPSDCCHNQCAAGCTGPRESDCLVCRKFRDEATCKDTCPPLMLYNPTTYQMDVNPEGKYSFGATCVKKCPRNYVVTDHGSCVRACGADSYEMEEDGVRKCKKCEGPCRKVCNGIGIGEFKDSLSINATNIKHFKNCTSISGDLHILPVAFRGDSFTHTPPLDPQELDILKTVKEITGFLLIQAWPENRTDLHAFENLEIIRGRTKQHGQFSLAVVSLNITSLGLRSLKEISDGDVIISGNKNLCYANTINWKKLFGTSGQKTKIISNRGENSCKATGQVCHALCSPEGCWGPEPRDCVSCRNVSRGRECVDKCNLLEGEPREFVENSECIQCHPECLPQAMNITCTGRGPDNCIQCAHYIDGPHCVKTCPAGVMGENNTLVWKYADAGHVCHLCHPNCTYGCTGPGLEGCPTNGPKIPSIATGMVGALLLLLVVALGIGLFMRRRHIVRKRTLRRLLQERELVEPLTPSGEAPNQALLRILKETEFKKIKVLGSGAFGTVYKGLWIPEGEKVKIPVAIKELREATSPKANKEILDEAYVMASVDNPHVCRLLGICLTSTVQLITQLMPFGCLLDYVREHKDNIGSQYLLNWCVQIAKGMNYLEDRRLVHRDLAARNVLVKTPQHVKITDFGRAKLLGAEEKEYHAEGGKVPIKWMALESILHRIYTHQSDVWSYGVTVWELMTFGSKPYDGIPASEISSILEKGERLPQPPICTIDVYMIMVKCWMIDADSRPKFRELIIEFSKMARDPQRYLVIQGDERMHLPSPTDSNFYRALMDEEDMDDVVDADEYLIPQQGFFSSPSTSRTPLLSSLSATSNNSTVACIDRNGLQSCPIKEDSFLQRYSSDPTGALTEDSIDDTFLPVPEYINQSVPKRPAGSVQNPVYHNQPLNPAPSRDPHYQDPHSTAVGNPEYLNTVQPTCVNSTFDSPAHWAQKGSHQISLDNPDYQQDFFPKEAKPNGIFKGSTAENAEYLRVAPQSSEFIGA
In short: as §1

EGFR(L858R/T790M) = biological target: T1, EGFR(L858R/T790M) (Homo sapiens, UniProt P00533, L858R/T790M); assay: EGFR biochemical assay (HTRF), IC50 determinations
T1 construct: purchased from Carna (GST-a.a. 669-1210)
T1 sequence (P00533 669-1210 T790M/L858R): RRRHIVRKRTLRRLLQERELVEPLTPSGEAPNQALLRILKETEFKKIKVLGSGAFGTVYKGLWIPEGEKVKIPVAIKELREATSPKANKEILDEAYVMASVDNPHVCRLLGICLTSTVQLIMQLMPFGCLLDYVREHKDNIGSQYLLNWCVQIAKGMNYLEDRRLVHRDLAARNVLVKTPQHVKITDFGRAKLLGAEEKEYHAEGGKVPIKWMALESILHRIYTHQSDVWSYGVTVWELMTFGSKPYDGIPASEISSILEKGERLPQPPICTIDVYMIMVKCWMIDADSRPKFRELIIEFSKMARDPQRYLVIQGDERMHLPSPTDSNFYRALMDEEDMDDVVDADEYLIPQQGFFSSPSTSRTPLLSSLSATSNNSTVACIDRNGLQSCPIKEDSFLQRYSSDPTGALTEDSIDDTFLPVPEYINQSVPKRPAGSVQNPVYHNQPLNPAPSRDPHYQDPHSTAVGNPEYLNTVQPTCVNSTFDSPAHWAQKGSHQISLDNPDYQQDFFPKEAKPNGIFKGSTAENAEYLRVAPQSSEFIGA
In short: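 Two formats were run: compound preincubated at room temperature with enzyme and biotin-TK peptide before ATP starts the reaction, or no preincubation with enzyme added last. Reactions ran 60 min at room temperature and were stopped with EDTA. Phosphopeptide was read by HTRF (PT66K/SAXL, 1 h).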

[3] = biological target: human EGFR WT (NIH/3T3 cells, EGF-induced) (Homo sapiens, UniProt P00533); assay: EGFR target modulation in engineered NIH/3T3 cell lines (phospho-EGFR Y1068 AlphaLISA), EGFR WT; format: cell-based; conditions: engineered NIH/3T3 cells, read-out: NIH3T3 IC50 (μM) EGFR (WT)
human EGFR WT (NIH/3T3 cells, EGF-induced), sequence (P00533 25-1210): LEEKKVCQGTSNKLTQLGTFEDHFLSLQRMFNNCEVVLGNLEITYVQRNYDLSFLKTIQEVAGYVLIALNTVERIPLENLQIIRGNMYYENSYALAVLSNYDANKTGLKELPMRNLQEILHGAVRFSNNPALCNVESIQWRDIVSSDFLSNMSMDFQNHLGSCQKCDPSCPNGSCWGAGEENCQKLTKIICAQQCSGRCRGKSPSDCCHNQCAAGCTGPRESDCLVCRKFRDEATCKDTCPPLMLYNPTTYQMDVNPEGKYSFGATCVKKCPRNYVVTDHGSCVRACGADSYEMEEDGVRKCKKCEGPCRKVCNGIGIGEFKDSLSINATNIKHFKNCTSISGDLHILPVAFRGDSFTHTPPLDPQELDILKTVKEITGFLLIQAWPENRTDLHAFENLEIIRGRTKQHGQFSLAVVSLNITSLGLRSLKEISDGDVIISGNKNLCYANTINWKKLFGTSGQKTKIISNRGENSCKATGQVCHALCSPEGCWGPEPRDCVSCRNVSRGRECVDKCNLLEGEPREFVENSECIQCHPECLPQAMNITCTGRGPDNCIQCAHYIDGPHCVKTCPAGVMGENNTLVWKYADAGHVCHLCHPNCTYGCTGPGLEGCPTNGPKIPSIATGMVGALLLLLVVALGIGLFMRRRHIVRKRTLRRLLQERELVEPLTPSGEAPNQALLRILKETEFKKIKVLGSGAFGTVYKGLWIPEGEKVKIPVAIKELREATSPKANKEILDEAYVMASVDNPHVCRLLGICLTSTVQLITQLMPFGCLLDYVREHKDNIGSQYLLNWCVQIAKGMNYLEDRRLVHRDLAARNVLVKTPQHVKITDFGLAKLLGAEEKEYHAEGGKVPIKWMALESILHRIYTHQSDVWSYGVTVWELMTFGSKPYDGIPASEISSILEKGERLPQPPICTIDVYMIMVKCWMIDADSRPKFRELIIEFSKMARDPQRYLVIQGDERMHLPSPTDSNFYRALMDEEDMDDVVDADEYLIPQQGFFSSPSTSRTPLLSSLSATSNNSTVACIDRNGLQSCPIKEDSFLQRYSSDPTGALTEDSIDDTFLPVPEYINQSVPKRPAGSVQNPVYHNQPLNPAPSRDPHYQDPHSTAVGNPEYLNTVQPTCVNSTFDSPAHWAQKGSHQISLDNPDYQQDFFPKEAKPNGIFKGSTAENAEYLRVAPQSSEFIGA
In short: as §1

[4] = EGFR (L858R/T790M) with 90 min pre-incubation, read-out: IC50 (μM) Column B
[5] = EGFR (L858R/T790M) with no pre-incubation, read-out: IC50 (μM) Column A

| SMILES | IC50 [1] | IC50 [2] | IC50 (EGFR(L858R/T790M); [4]) | IC50 (EGFR(L858R/T790M); [5]) | IC50 [3] |
| --- | --- | --- | --- | --- | --- |
| C=CC(=O)N1CCCC(n2c(NC(=O)c3cccc(C(F)(F)F)c3)nc3c2CN(C)CC3)C1 (stereo not drawn) [Example 17-173] | 0.84 µM | 0.67 µM | 0.285 µM | 6.6 µM | > 10 µM |
| C=CC(=O)N1CCC[C@@H](n2c(NC(=O)c3cccc(C(F)(F)F)c3)nc3cc(C(=O)O)ccc32)C1 [Example 18, (R)-1-(1-acryloylpiperidin-3-yl)-2-(3-(trifluoromethyl)benzamido)-1H-benzo[d]imidazole-5-carboxylic acid] | 6.3 µM | > 10 µM | 0.041 µM | 2.59 µM | > 10 µM |
| C=CC(=O)N1CCCCC(n2c(NC(=O)c3cccc(C(F)(F)F)c3)nc3cccc(C(=O)O)c32)C1 (stereo not drawn) [Example 20, 1-(1-acryloylazepan-3-yl)-2-(3-(trifluoromethyl)benzamido)-1H-benzo[d]imidazole-7-carboxylic acid] | 0.82 µM | 3.3 µM | 0.005 µM | 0.11 µM | > 10 µM |
